# Columns and labels:
# [1] = system: db/db mice; test: Blood lipid lowering action in db/db mice, oral administration once a day for 14 days; assay type: in vivo; settings: non-fasting; for Plasma triglyceride concentration (mg/dL) Day 7: Day 7 (control group 508); for Plasma triglyceride concentration (mg/dL) Day 14: Day 14 (control group 622)
# Procedure: A 0.5% methyl cellulose suspension of the test compound was orally administered to 7-week-old db/db mice once a day for 14 days. The 0.5% methyl cellulose solution alone was administered to the control group.
# The blood was drawn from the orbital vein with light ether anesthesia before test compound administration on day 7 day 14 under non-fasting condition. The blood thus drawn was separated by centrifugation and the plasma triglyceride concentration was measured from the obtained plasma according to the enzyme method (triglyceride measure kit).
# [2] = system: male ob/ob mice; test: Hypoglycemic action in ob/ob mice, oral administration; assay type: in vivo; settings: Mus musculus, fasting, 3 hr after administration, relative to control group, read-out: Decrease in blood glucose level (%) 3 hr; for inhibition in vivo at 3 mg/kg: dose 3 mg/kg oral
# Procedure: A 0.5% methyl cellulose suspension of the test compound was orally administered to male ob/ob mice (6 to 9 weeks old) grouped based on blood glucose level. A 0.5% methyl cellulose solution alone was administered to a control group.
# The blood was drawn from the orbital vein with anesthesia at 3 hours after the administration. The blood was drawn under fasting by removing the feed immediately before test compound administration. The blood thus drawn was separated by centrifugation and the blood glucose level was measured from the obtained plasma according to the hexokinase method (glucose measure kit). For evaluation, decrease in the blood glucose level of the test compound administration group relative to the control group was shown in percentage.
# [3] = target: T1, recombinant human protein tyrosine phosphatase 1B (Homo sapiens, UniProt P18031); test: Protein tyrosine phosphatase 1B inhibitory action (malachite green, phosphorylated insulin receptor peptide substrate); assay type: biochemical; settings: recombinant human PTP1B, 60 min room temperature, absorbance at 650 nm
# T1 construct: purchased UBI
# T1 sequence (P18031 1-435): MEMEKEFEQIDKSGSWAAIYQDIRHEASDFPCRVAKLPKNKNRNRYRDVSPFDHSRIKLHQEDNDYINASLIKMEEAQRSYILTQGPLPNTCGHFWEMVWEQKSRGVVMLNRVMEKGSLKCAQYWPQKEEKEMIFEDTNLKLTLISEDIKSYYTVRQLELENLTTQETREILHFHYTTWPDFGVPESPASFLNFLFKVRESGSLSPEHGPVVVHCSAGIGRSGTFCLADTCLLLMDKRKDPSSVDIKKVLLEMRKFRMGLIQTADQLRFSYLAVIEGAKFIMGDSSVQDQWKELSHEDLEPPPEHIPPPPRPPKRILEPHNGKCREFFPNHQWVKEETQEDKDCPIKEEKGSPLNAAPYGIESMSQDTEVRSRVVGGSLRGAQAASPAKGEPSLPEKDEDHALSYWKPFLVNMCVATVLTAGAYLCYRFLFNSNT
# Procedure: Preparation of Assay Buffer:
# 50 mM Tris-HCl buffer (pH 7.5), and 50 mM NaCl and 3 mM dithiothreitol (DTT) were prepared.
# Respective 10 mM DMSO solutions of 0.1, 0.3, 1, 3 and 10 μM test compounds were diluted with the above-mentioned assay buffer so that the final dimethyl sulfoxide (DMSO) concentration would be not more than 1%. As a control, an assay buffer was used.
# Preparation of Substrate:
# A synthetic peptide consisting of 12 amino acids corresponding to 1142nd–1153rd of insulin receptor sequence, wherein three tyrosines therein had been phosphorylated, was diluted with the above-mentioned assay buffer to 80 μM.
# A recombinant human protein tyrosine phosphatase 1B (manufactured by UBI) was diluted with the above-mentioned assay buffer (1.2 ng/25 μl).
# A sample (10 μl) and a substrate (25 μl) prepared as mentioned above were successively added to a 96 well plate, and an enzyme (25 μl) prepared as mentioned above was added and mixed. After incubation at room temperature for 60 min., malachite green (120 μl, Biomol), which is a phosphorus color fixing agent, was added, and the mixture was further incubated at room temperature for 20 min. to allow color development. The absorbance at 650 nm was measured on a plate reader, and the protein tyrosine phosphatase 1B inhibitory action of the test compound was evaluated.
Structure (SMILES),Plasma triglyceride concentration (mg/dL) Day 7 ([1]; dose 10 mg/kg oral once a day) [mg/dL],Plasma triglyceride concentration (mg/dL) Day 14 ([1]; dose 10 mg/kg oral once a day) [mg/dL],Plasma triglyceride concentration (mg/dL) Day 7 ([1]; dose 30 mg/kg oral once a day) [mg/dL],Plasma triglyceride concentration (mg/dL) Day 14 ([1]; dose 30 mg/kg oral once a day) [mg/dL],melting point [°C],inhibition in vivo at 0.3 mg/kg ([2]; dose 0.3 mg/kg oral) [%],inhibition in vivo at 1 mg/kg ([2]; dose 1 mg/kg oral) [%],inhibition in vivo at 3 mg/kg [2] [%],IC50 [3] [µM]
"CN(Cc1ccc(C2CCCCC2)cc1)c1ccc(-c2csc(N(C)Cc3ccc(C(=O)[O-])cc3)n2)cc1.[Na+] [Example 102, sodium 4-(N-(4-(4-(N-(4-cyclohexylbenzyl)-N-methylamino)phenyl)-2-thiazolyl)-N-methylaminomethyl)benzoate]",277,349,250,307,240,–,–,–,–
"CN(Cc1ccc(C2CCC(C)(C)CC2)cc1)c1ccc(-c2csc(N(C)Cc3ccc(C(=O)O)cc3)n2)cc1 [Example 215, 4-((N-(4-(4-(N-(4-(4,4-dimethylcyclohexyl)benzyl)-N-methylamino)phenyl)-2-thiazolyl)-N-methylamino)methyl)benzoic acid]",–,–,–,–,155 to 158,-9,32,39,0.11
"O=C(O)c1ccc(CN(CC2CCCCC2)c2nc(-c3nc4ccc(OCc5ccc(Cl)c(Cl)c5)cc4o3)cs2)cc1 [Example 217, 4-((N-cyclohexylmethyl-N-(4-(6-(3,4-dichlorobenzyloxy)-2-benzooxazolyl)-2-thiazolyl)amino)methyl)benzoic acid]",–,–,–,–,188 to 190,–,–,20,0.26
"CC1CCC(c2ccc(CN(C)c3ccc(-c4csc(N(C)Cc5ccc(C(=O)O)cc5)n4)cc3)cc2)CC1 (stereo not shown) [Example 218, 4-((N-methyl-N-(4-(4-(N-methyl-N-(4-(4-methylcyclohexyl)benzyl)amino)phenyl)-2-thiazolyl)amino)methyl)benzoic acid]",–,–,–,–,185 to 191,–,–,27,0.15
"CCCC(CCC)c1ccc(CN(C)c2ccc(-c3csc(N(C)Cc4ccc(C(=O)O)cc4)n3)cc2)cc1 [Example 230, 4-((N-methyl-N-(4-(4-(N-methyl-N-(4-(1-propylbutyl)benzyl)amino)phenyl)-2-thiazolyl)amino)methyl)benzoic acid]",–,–,–,–,114 to 115,–,–,40,0.15

# From patent US7163952B2, “Azole compound and medicinal use thereof” (Japan Tobacco Inc., priority 2001, dated 2007)
